The assay relates to H1975 cells. To be noted: EGFR T790M.

For the compound `C#Cc1cccc(Nc2ncnc3cc(OCCOC)c(OCCOC)cc23)c1` [Erlotinib], the autophagy induction result is recorded as “fails to induce autophagy” and the cell killing entry was “fails to kill the cells”.

The values above are taken from US8722628B2, “Autophagy-inducing peptide” (priority 2012, dated 2014).
